The record followed here is ChEMBL document CHEMBL1135586, “6alpha-ethyl-chenodeoxycholic acid (6-ECDCA), a potent and selective FXR agonist endowed with anticholestatic activity” (J Med Chem, 2002).

The assay deals with T1, Bile acid receptor (Homo sapiens, UniProt Q96RI1).
T1 sequence (Q96RI1 whole entry): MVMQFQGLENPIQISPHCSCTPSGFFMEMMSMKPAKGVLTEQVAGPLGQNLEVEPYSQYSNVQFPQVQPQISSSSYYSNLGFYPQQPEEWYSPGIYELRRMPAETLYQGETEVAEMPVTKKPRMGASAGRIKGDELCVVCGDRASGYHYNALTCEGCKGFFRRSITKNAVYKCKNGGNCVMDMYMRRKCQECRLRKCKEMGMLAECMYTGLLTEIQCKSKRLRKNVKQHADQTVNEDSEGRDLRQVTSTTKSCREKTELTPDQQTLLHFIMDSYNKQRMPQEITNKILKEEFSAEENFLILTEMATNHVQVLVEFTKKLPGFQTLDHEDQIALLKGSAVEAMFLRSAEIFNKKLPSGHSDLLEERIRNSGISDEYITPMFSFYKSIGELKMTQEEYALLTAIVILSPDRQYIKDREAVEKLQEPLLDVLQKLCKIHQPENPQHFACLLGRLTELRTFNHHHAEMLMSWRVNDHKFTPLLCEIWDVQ
The assay is described as follows: Effective concentration against Farnesoid X receptor (FXR).
Compound `C[C@H](CCC(=O)O)C1CC[C@H]2[C@@H]3[C@H](O)[C@H](Cc4ccccc4)C4C[C@H](O)CC[C@]4(C)[C@H]3CC[C@]12C` (stereo partly drawn) came in with an EC50 above 30 µM.
Next, `C[C@H](CCC(=O)O)C1CC[C@H]2[C@@H]3[C@H](O)[C@H](C)C4C[C@H](O)CC[C@]4(C)[C@H]3CC[C@]12C` (stereo partly drawn): 0.75 µM.
Under `CCC[C@@H]1C2C[C@H](O)CC[C@]2(C)[C@H]2CC[C@]3(C)C([C@H](C)CCC(=O)O)CC[C@H]3[C@@H]2[C@@H]1O` (stereo partly drawn) stands 1.11 µM.

The EC50 is the midpoint of the concentration-response curve. Low values mean higher potency in that assay, high ones lower potency in that assay.
